Molecular target: T1, PLK1 (Homo sapiens, UniProt P53350)
T1 construct: endogenous in cells; host or cells: HeLa
Test: PLK1 protein degradation in HeLa cells, Western blotting (PLK1/GAPDH ratio)
Type: cell-based
Details: 6 hours compound incubation; for DC50: measured only if the grade of Dmax is A or B; for Dmax: thymidine block and release, 10 points three-fold from 3 μM, PLK1 to GAPDH ratio, read-out: Dmax
In short: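 PLK1 level measured by Western blot as PLK1/GAPDH in HeLa lysates (15 μg protein per lane). Cells were blocked with 2 mM thymidine 24 h, released 4 h, and exposed 6 h to compound, 10 concentrations, 3-fold steps, top 3 μM.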

T1 sequence (P53350 whole entry): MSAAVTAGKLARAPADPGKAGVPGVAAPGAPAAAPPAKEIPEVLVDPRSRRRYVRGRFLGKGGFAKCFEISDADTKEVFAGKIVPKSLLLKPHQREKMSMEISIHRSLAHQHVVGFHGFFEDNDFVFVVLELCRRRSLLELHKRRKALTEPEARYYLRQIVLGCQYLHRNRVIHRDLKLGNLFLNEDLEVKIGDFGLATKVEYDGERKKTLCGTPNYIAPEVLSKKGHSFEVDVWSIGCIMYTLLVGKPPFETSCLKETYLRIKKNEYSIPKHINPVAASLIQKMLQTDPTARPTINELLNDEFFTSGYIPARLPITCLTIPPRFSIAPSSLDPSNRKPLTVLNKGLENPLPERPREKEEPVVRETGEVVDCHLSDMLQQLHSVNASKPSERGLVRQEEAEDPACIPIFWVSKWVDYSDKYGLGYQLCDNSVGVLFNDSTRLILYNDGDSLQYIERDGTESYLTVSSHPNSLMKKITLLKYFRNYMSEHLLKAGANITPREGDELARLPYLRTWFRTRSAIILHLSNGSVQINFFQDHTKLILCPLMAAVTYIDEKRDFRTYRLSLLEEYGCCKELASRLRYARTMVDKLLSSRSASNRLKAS

| Structure (SMILES) | DC50 | Dmax |
| --- | --- | --- |
| COc1cc(C(=O)N[C@H]2CCN(C(=O)CCCC(=O)N3CCN(c4ccc5c(c4)C(=O)N(C4CCC(=O)NC4=O)C5=O)CC3)C2)c(F)cc1Nc1ncc2c(n1)N(C1CCCC1)CC(F)(F)C(=O)N2C (stereo partly drawn) [Compound 147, 4-((9-cyclopentyl-7,7-difluoro-5-methyl-6-oxo-6,7,8,9-tetrahydro-5H-pyrimido[4,5-b][1,4]diazepin-2-yl)amino)-N-((3S)-1-(5-(4-(2-(2,6-dioxopiperidin-3-yl)-1,3-dioxoisoindolin-5-yl)piperazin-1-yl)-5-oxopentanoyl)pyrrolidin-3-yl)-2-fluoro-5-methoxybenzamide] | ≤ 0.5 µM | 60 to 80% |
| COc1cc(C(=O)N[C@H]2CCN(C(=O)CCC(=O)N3CC4(C3)CN(c3cccc5c3C(=O)N(C3CCC(=O)NC3=O)C5=O)C4)C2)c(F)cc1Nc1ncc2c(n1)N(C1CCCC1)CC(F)(F)C(=O)N2C (stereo partly drawn) [Compound 148, 4-((9-cyclopentyl-7,7-difluoro-5-methyl-6-oxo-6,7,8,9-tetrahydro-5H-pyrimido[4,5-b][1,4]diazepin-2-yl)amino)-N-((3S)-1-(4-(6-(2-(2,6-dioxopiperidin-3-yl)-1,3-dioxoisoindolin-4-yl)-2,6-diazaspiro[3.3]heptan-2-yl)-4-oxobutanoyl)pyrrolidin-3-yl)-2-fluoro-5-methoxybenzamide] | ≤ 0.05 µM | ≥ 80% |
| COc1cc(C(=O)N[C@H]2CCN(C(=O)CCCC(=O)N3CC4(C3)CN(c3cccc5c3C(=O)N(C3CCC(=O)NC3=O)C5=O)C4)C2)c(F)cc1Nc1ncc2c(n1)N(C1CCCC1)CC(F)(F)C(=O)N2C (stereo partly drawn) [Compound 149, 4-((9-cyclopentyl-7,7-difluoro-5-methyl-6-oxo-6,7,8,9-tetrahydro-5H-pyrimido[4,5-b][1,4]diazepin-2-yl)amino)-N-((3S)-1-(5-(6-(2-(2,6-dioxopiperidin-3-yl)-1,3-dioxoisoindolin-4-yl)-2,6-diazaspiro[3.3]heptan-2-yl)-5-oxopentanoyl)pyrrolidin-3-yl)-2-fluoro-5-methoxybenzamide] | ≤ 0.5 µM | 60 to 80% |
| COc1cc(C(=O)NC2CCN(C(=O)COCCOCCNc3cccc4c3CN(C3CCC(=O)NC3=O)C4=O)C2)c(F)cc1Nc1ncc2c(n1)N(C1CCCC1)CC(F)(F)C(=O)N2C (stereo not shown) [Compound 150, 4-((9-cyclopentyl-7,7-difluoro-5-methyl-6-oxo-6,7,8,9-tetrahydro-5H-pyrimido[4,5-b][1,4]diazepin-2-yl)amino)-N-(1-(2-(2-(2-((2-(2,6-dioxopiperidin-3-yl)-1-oxoisoindolin-4-yl)amino)ethoxy)ethoxy)acetyl)pyrrolidin-3-yl)-2-fluoro-5-methoxybenzamide] | ≤ 0.05 µM | ≥ 80% |
| COc1cc(C(=O)NCCOCCOCCOCCNc2cccc3c2C(=O)N(C2CCC(=O)NC2=O)C3=O)c(F)cc1Nc1ncc2c(n1)N(C1CCCC1)CC(F)(F)C(=O)N2C (stereo not shown) [Compound 153, 4-((9-cyclopentyl-7,7-difluoro-5-methyl-6-oxo-6,7,8,9-tetrahydro-5H-pyrimido[4,5-b][1,4]diazepin-2-yl)amino)-N-(2-(2-(2-(2-((2-(2,6-dioxopiperidin-3-yl)-1,3-dioxoisoindolin-4-yl)amino)ethoxy)ethoxy)ethoxy)ethyl)-2-fluoro-5-methoxybenzamide] | ≤ 0.05 µM | ≥ 80% |
| COc1cc(C(=O)NC2CC3(C2)CN(C(=O)CCNc2cccc4c2C(=O)N(C2CCC(=O)NC2=O)C4=O)C3)c(F)cc1Nc1ncc2c(n1)N(C1CCCC1)CC(F)(F)C(=O)N2C (stereo not shown) [Compound 159, 4-((9-cyclopentyl-7,7-difluoro-5-methyl-6-oxo-6,7,8,9-tetrahydro-5H-pyrimido[4,5-b][1,4]diazepin-2-yl)amino)-N-(2-(3-((2-(2,6-dioxopiperidin-3-yl)-1,3-dioxoisoindolin-4-yl)amino)propanoyl)-2-azaspiro[3.3]heptan-6-yl)-2-fluoro-5-methoxybenzamide] | ≤ 0.05 µM | ≥ 80% |
| COc1cc(C(=O)NC2CC3(C2)CN(C(=O)CCCNc2cccc4c2C(=O)N(C2CCC(=O)NC2=O)C4=O)C3)c(F)cc1Nc1ncc2c(n1)N(C1CCCC1)CC(F)(F)C(=O)N2C (stereo not shown) [Compound 160, 4-((9-cyclopentyl-7,7-difluoro-5-methyl-6-oxo-6,7,8,9-tetrahydro-5H-pyrimido[4,5-b][1,4]diazepin-2-yl)amino)-N-(2-(4-((2-(2,6-dioxopiperidin-3-yl)-1,3-dioxoisoindolin-4-yl)amino)butanoyl)-2-azaspiro[3.3]heptan-6-yl)-2-fluoro-5-methoxybenzamide] | ≤ 0.05 µM | ≥ 80% |
| COc1cc(C(=O)NC2CC3(C2)CN(C(=O)CCCCNc2cccc4c2C(=O)N(C2CCC(=O)NC2=O)C4=O)C3)c(F)cc1Nc1ncc2c(n1)N(C1CCCC1)CC(F)(F)C(=O)N2C (stereo not shown) [Compound 161, 4-((9-cyclopentyl-7,7-difluoro-5-methyl-6-oxo-6,7,8,9-tetrahydro-5H-pyrimido[4,5-b][1,4]diazepin-2-yl)amino)-N-(2-(5-((2-(2,6-dioxopiperidin-3-yl)-1,3-dioxoisoindolin-4-yl)amino)pentanoyl)-2-azaspiro[3.3]heptan-6-yl)-2-fluoro-5-methoxybenzamide] | ≤ 0.05 µM | ≥ 80% |

Further lines, results first:

| DC50 | Dmax | Structure (SMILES) |
| --- | --- | --- |
| ≤ 0.5 µM | 60 to 80% | COc1cc(C(=O)NCCOCCNc2cccc3c2C(=O)N(C2CCC(=O)NC2=O)C3=O)c(F)cc1Nc1ncc2c(n1)N(C1CCCC1)CC(F)(F)C(=O)N2C (stereo not shown) [Compound 151, 4-((9-cyclopentyl-7,7-difluoro-5-methyl-6-oxo-6,7,8,9-tetrahydro-5H-pyrimido[4,5-b][1,4]diazepin-2-yl)amino)-N-(2-(2-((2-(2,6-dioxopiperidin-3-yl)-1,3-dioxoisoindolin-4-yl)amino)ethoxy)ethyl)-2-fluoro-5-methoxybenzamide] |
| ≤ 0.05 µM | ≥ 80% | COc1cc(C(=O)NCCOCCOCCNc2cccc3c2C(=O)N(C2CCC(=O)NC2=O)C3=O)c(F)cc1Nc1ncc2c(n1)N(C1CCCC1)CC(F)(F)C(=O)N2C (stereo not shown) [Compound 152, 4-((9-cyclopentyl-7,7-difluoro-5-methyl-6-oxo-6,7,8,9-tetrahydro-5H-pyrimido[4,5-b][1,4]diazepin-2-yl)amino)-N-(2-(2-(2-((2-(2,6-dioxopiperidin-3-yl)-1,3-dioxoisoindolin-4-yl)amino)ethoxy)ethoxy)ethyl)-2-fluoro-5-methoxybenzamide] |
| – | < 60% | COc1cc(C(=O)NCCCCCCCCNc2cccc3c2C(=O)N(C2CCC(=O)NC2=O)C3=O)c(F)cc1Nc1ncc2c(n1)N(C1CCCC1)CC(F)(F)C(=O)N2C (stereo not shown) [Compound 154, 4-((9-cyclopentyl-7,7-difluoro-5-methyl-6-oxo-6,7,8,9-tetrahydro-5H-pyrimido[4,5-b][1,4]diazepin-2-yl)amino)-N-(8-((2-(2,6-dioxopiperidin-3-yl)-1,3-dioxoisoindolin-4-yl)amino)octyl)-2-fluoro-5-methoxybenzamide] |
| ≤ 0.5 µM | 60 to 80% | COc1cc(C(=O)NCCOCCCNc2cccc3c2C(=O)N(C2CCC(=O)NC2=O)C3=O)c(F)cc1Nc1ncc2c(n1)N(C1CCCC1)CC(F)(F)C(=O)N2C (stereo not shown) [Compound 155, 4-((9-cyclopentyl-7,7-difluoro-5-methyl-6-oxo-6,7,8,9-tetrahydro-5H-pyrimido[4,5-b][1,4]diazepin-2-yl)amino)-N-(2-(3-((2-(2,6-dioxopiperidin-3-yl)-1,3-dioxoisoindolin-4-yl)amino)propoxy)ethyl)-2-fluoro-5-methoxybenzamide] |
| ≤ 0.05 µM | ≥ 80% | COc1cc(C(=O)NCCOCCCOCCNc2cccc3c2C(=O)N(C2CCC(=O)NC2=O)C3=O)c(F)cc1Nc1ncc2c(n1)N(C1CCCC1)CC(F)(F)C(=O)N2C (stereo not shown) [Compound 156, 4-((9-cyclopentyl-7,7-difluoro-5-methyl-6-oxo-6,7,8,9-tetrahydro-5H-pyrimido[4,5-b][1,4]diazepin-2-yl)amino)-N-(2-(3-(2-((2-(2,6-dioxopiperidin-3-yl)-1,3-dioxoisoindolin-4-yl)amino)ethoxy)propoxy)ethyl)-2-fluoro-5-methoxybenzamide] |
| ≤ 0.05 µM | ≥ 80% | COc1cc(C(=O)NCCCOCCCOCCNc2cccc3c2C(=O)N(C2CCC(=O)NC2=O)C3=O)c(F)cc1Nc1ncc2c(n1)N(C1CCCC1)CC(F)(F)C(=O)N2C (stereo not shown) [Compound 157, 4-((9-cyclopentyl-7,7-difluoro-5-methyl-6-oxo-6,7,8,9-tetrahydro-5H-pyrimido[4,5-b][1,4]diazepin-2-yl)amino)-N-(3-(3-(2-((2-(2,6-dioxopiperidin-3-yl)-1,3-dioxoisoindolin-4-yl)amino)ethoxy)propoxy)propyl)-2-fluoro-5-methoxybenzamide] |
| ≤ 0.5 µM | 60 to 80% | COc1cc(C(=O)NCCCCCCCC(=O)Nc2cccc3c2C(=O)N(C2CCC(=O)NC2=O)C3=O)c(F)cc1Nc1ncc2c(n1)N(C1CCCC1)CC(F)(F)C(=O)N2C (stereo not shown) [Compound 158, 4-((9-cyclopentyl-7,7-difluoro-5-methyl-6-oxo-6,7,8,9-tetrahydro-5H-pyrimido[4,5-b][1,4]diazepin-2-yl)amino)-N-(8-((2-(2,6-dioxopiperidin-3-yl)-1,3-dioxoisoindolin-4-yl)amino)-8-oxooctyl)-2-fluoro-5-methoxybenzamide] |
| ≤ 0.05 µM | ≥ 80% | COc1cc(C(=O)NCCCCCNC(=O)COc2cccc3c2C(=O)N(C2CCC(=O)NC2=O)C3=O)c(F)cc1Nc1ncc2c(n1)N(C1CCCC1)CC(F)(F)C(=O)N2C (stereo not shown) [Compound 162, 4-((9-cyclopentyl-7,7-difluoro-5-methyl-6-oxo-6,7,8,9-tetrahydro-5H-pyrimido[4,5-b][1,4]diazepin-2-yl)amino)-N-(5-(2-((2-(2,6-dioxopiperidin-3-yl)-1,3-dioxoisoindolin-4-yl)oxy)acetamido)pentyl)-2-fluoro-5-methoxybenzamide] |
